Experimental data: patent US8278319B2, “Substituted spiroamine compounds” (Gruenenthal GmbH, priority 2008, dated 2012)

Columns and labels:
rat B1R = target: T1, rat B1R (Rattus norvegicus, UniProt P97583); test: Functional investigation on the bradykinin receptor 1 (B1R), FLIPR Ca2+ assay, rB1R cells; assay type: cell-based; conditions: % inhibition rat B1R at 10 μM; CHO K1 cells transfected with rat B1R; agonist Des-Arg9 bradykinin at EC80; read-out: % Inh. (rat B1R) 10 μM
T1 construct: expressed in transfected cells; host or cells: CHO K1 cells
T1 sequence (P97583 1-337): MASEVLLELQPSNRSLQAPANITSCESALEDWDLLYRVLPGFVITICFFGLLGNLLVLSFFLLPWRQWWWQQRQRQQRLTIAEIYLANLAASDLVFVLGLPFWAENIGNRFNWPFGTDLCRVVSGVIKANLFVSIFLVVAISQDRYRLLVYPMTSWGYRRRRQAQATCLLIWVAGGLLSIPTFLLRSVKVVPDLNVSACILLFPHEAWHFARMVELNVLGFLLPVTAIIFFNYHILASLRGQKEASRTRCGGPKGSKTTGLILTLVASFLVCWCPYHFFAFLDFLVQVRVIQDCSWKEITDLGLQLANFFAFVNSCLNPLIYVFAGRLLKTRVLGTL
Method: (§1) The agonistic or antagonistic action of substances can be quantified on the bradykinin receptor 1 (B1R) of the human and rat species with ectopically expressing cell lines (CHO K1 cells) and with the aid of a Ca^2+-sensitive dye (Fluo-4) using a fluorescent imaging plate reader (FLIPR). The indication in % activation is based on the Ca^2+ signal after addition of Lys-Des-Arg^9 bradykinin (0.5 nM) or Des-Arg^9 bradykinin (100 nM). Antagonists lead to a suppression of the Ca^2+ influx following administration of the agonist. The % inhibition in comparison with the maximum achievable inhibition is indicated.
(§2) The agonistic or antagonistic action of substances can be determined on the bradykinin 1 receptor (B1R) of the human and rat species with the following assay. According to this assay, the Ca^2+ inflow through the channel is quantified with the aid of a Ca^2+-sensitive dye (Fluo-4 type, Molecular Probes Europe BV, Leiden, The Netherlands) in a fluorescent imaging plate reader (FLIPR, Molecular Devices, Sunnyvale, USA).
(§3) Chinese hamster ovary cells (CHO K1 cells) which are stably transfected with the human B1R gene (hB1R cells) or the B1R gene of the rat (rB1R cells) are used. For functional investigations, these cells are plated-out onto black 96-well plates with a clear base (BD Biosciences, Heidelberg, Germany or Greiner, Frickenhausen, Germany) in a density of 20,000-35,000 cells/well. Overnight, the cells are incubated at 37° C. and 5% CO2 in culture medium (hB1R cells: Nutrient Mixture Ham's F12, Gibco Invitrogen GmbH, Karlsruhe, Germany or DMEM, Sigma-Aldrich, Taufkirchen, Germany; rB1R cells: D-MEM/F12, Gibco Invitrogen, Karlsruhe, Germany) with 10 vol. % FBS (foetal bovine serum, Gibco Invitrogen GmbH, Karlsruhe, Germany or PAN Biotech GmbH, Aidenbach, Germany). On the following day the cells are loaded with 2.13 μM Fluo-4 (Molecular Probes Europe BV, Leiden, The Netherlands) in HBSS buffer (Hank's buffered saline solution, Gibco Invitrogen GmbH, Karlsruhe, Germany) with 2.5 mM probenecid (Sigma-Aldrich, Taufkirchen, Germany) and 10 mM HEPES (Sigma-Aldrich, Taufkirchen, Germany) for 60 min at 37° C. The plates are the washed twice with HBSS buffer, and HBSS buffer which additionally contains 0.1% BSA (bovine serum albumin; Sigma-Aldrich, Taufkirchen, Germany), 5.6 mM glucose and 0.05% gelatine (Merck KGaA, Darmstadt, Germany) is added. After a further incubation of 20 minutes at room temperature, the plates are inserted into the FLIPR for Ca^2+ measurement. Alternatively they are washed with buffer A (15 mM HEPES, 80 mM NaCl, 5 mM KCl, 1.2 mM CaCl2, 0.7 mM MgSO4, 2 g/l glucose, 2.5 mM probenecid) and loaded with buffer A with added 2.5 μM Fluo-4 and 0.025% Pluronic F127 (Sigma-Aldrich, Taufkirchen, Germany). The cells are then washed twice with buffer A and incubated for 30 minutes with buffer A, which additionally contains 0.05% BSA and 0.05% gelatine, at room temperature and then used for Ca^2+ measurement in the FLIPR.
(§4) The Ca^2+-dependent fluorescence is measured here before and after addition of substances (λex=488 nm, λem=540 nm). The quantification is performed by measuring the highest fluorescence intensity (FC, fluorescence counts) over time.
(§5) The FLIPR protocol comprises two additions of substance. Test substances (10 μM) are first pipetted onto the cells and the Ca^2+ inflow is compared with the control (hB1R: Lys-Des-Arg^9 bradykinin>=50 nM; rB1R: Des-Arg^9 bradykinin 10 μM). The value in % activation based on the Ca^2+ signal after addition of Lys-Des-Arg^9 bradykinin (>=50 nM) or Des-Arg^9 bradykinin (10 μM) is obtained therefrom. After incubation for 10-20 minutes, Lys-Des-Arg^9 bradykinin (hB1R) or Des-Arg^9 bradykinin (rB1R) is applied in the EC80 concentration and the inflow of Ca^2+ is likewise determined. Antagonists lead to a suppression of the Ca^2+ inflow. The % inhibition in comparison with the maximum achievable inhibition is calculated. […]

human B1R = target: T2, human B1R (Homo sapiens, UniProt P46663); test: Functional investigation on the bradykinin receptor 1 (B1R), FLIPR Ca2+ assay, hB1R cells; assay type: cell-based; conditions: % inhibition human B1R at 10 μM; CHO K1 cells transfected with human B1R; agonist Lys-Des-Arg9 bradykinin at EC80; read-out: % Inh. (hum. B1R) 10 μM
T2 construct: expressed in transfected cells; host or cells: CHO K1 cells
T2 sequence (P46663 1-353): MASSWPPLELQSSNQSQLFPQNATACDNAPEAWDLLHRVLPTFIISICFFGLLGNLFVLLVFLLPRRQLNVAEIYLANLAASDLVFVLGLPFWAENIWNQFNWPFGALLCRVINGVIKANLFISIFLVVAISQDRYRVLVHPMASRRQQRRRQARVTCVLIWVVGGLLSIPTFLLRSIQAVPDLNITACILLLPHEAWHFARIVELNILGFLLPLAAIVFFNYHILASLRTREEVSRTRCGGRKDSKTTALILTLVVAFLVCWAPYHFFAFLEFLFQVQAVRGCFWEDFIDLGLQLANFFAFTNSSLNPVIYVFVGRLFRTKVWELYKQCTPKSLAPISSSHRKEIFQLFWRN
Method: as §1, §2, §3, §4, §5

SMILES | inhibition at 10 µM (rat B1R) [%] | inhibition at 10 µM (human B1R) [%]
O=C(CC1CCCCN1S(=O)(=O)c1cccc(C(F)(F)F)c1)N1CCC2(CC1)CCC(c1cccc(F)c1)(N1CCCC1)CC2 (centres unmarked) [CC-01, 1-[3-(3-Fluorophenyl)-3-pyrrolidin-1-yl-9-azaspiro[5.5]undecan-9-yl]-2-[1-[[3-(trifluoromethyl)phenyl]sulfonyl]-piperidin-2-yl]-ethanone] | 75 | 73
COc1cc(C)c(S(=O)(=O)N2CCCCC2CCCC(=O)N2CCC3(CC2)CCC(c2cccc(F)c2)(N2CCCC2)CC3)c(C)c1 (centres unmarked) [CC-02, 1-[3-(3-Fluorophenyl)-3-pyrrolidin-1-yl-9-azaspiro[5.5]undecan-9-yl]-4-[1-[(4-methoxy-2,6-dimethyl-phenyl)sulfonyl]-pipereridin-2-yl]-butan-1-one] | 98 | 100
COc1cc(C)c(S(=O)(=O)N2CCCCC2COCC(=O)N2CCC3(CC2)CCC(c2cccc(F)c2)(N2CCCC2)CC3)c(C)c1 (centres unmarked) [CC-03, 1-[3-(3-Fluorophenyl)-3-pyrrolidin-1-yl-9-azaspiro[5.5]undecan-9-yl]-2-[[1-[(4-methoxy-2,6-dimethyl-phenyl)sulfonyl]-piperidin-2-yl]-methoxy]-ethanone] | 99 | 100
COc1cc(C)c(S(=O)(=O)N(CCOCC(=O)N2CCC3(CC2)CCC(c2cccc(F)c2)(N2CCCC2)CC3)C2CC2)c(C)c1 [CC-04, N-Cyclopropyl-N-[2-[2-[3-(3-fluorophenyl)-3-pyrrolidin-1-yl-9-azaspiro[5.5]undecan-9-yl]-2-oxo-ethoxy]-ethyl]-4-methoxy-2,6-dimethyl-benzenesulfonic acid amide] | 98 | 100
Cc1cccc(Cl)c1S(=O)(=O)N1CCCCC1COCC(=O)N1CCC2(CC1)CCC(c1cccc(F)c1)(N1CCCC1)CC2 (centres unmarked) [CC-05, 2-[[1-[(2-Chloro-6-methyl-phenyl)sulfonyl]-piperidin-2-yl]-methoxy]-1-[3-(3-fluorophenyl)-3-pyrrolidin-1-yl-9-azaspiro[5.5]undecan-9-yl]-ethanone] | 98 | 100
Cc1cccc(Cl)c1S(=O)(=O)N(CCOCC(=O)N1CCC2(CC1)CCC(c1cccc(F)c1)(N1CCCC1)CC2)C1CC1 [CC-06, 2-Chloro-N-cyclopropyl-N-[2-[2-[3-(3-fluorophenyl)-3-pyrrolidin-1-yl-9-azaspiro[5.5]undecan-9-yl]-2-oxo-ethoxy]-ethyl]-6-methyl-benzenesulfonic acid amide] | 97 | 100
Cc1cc(S(=O)(=O)N2CCCCC2CCC(=O)N2CCC3(CC2)CCC(c2cccc(F)c2)(N2CCCC2)CC3)c(C)cc1Cl (centres unmarked) [CC-07, 3-[1-[(4-Chloro-2,5-dimethyl-phenyl)sulfonyl]-piperidin-2-yl]-1-[3-(3-fluorophenyl)-3-pyrrolidin-1-yl-9-azaspiro[5.5]undecan-9-yl]-propan-1-one] | 86 | 99
O=C(CC(NS(=O)(=O)c1ccc2ccccc2c1)c1ccccc1)N1CCC2(CC1)CCC(c1cccc(F)c1)(N1CCCC1)CC2 (centres unmarked) [CC-08, N-[3-[3-(3-Fluorophenyl)-3-pyrrolidin-1-yl-9-azaspiro[5.5]undecan-9-yl]-3-oxo-1-phenyl-propyl]-naphthalene-2-sulfonic acid amide] | 96 | 81
Cc1cccc(Cl)c1S(=O)(=O)N(CCOCC(=O)N1CCC2(CC1)CCC(c1cccs1)(N(C)C)CC2)C1CC1 [CC-09, 2-Chloro-N-cyclopropyl-N-[2-[2-(3-dimethylamino-3-thiophen-2-yl-9-azaspiro[5.5]undecan-9-yl)-2-oxo-ethoxy]-ethyl]-6-methyl-benzenesulfonic acid amide] | 97 | 100
CN(C)C1(c2cccs2)CCC2(CCN(C(=O)CC3CCCCN3S(=O)(=O)c3cccc(C(F)(F)F)c3)CC2)CC1 (centres unmarked) [CC-10, 1-(3-Dimethylamino-3-thiophen-2-yl-9-azaspiro[5.5]undecan-9-yl)-2-[1-[[3-(trifluoromethyl)phenyl]sulfonyl]-piperidin-2-yl]-ethanone] | 79 | 84
